Assay results: article PMC3947174 (Structure (London, England : 1993), 2013)
Ends that are not written are not given here. Ahx = NCCCCCC(=O)O

Experiments:
CALP (CAL PDZ domain) [1] = target: T1, CALP (CAL PDZ domain) (Homo sapiens, UniProt Q9HD26); assay: FP competition; type: binding; conditions: reporter F*-iCAL36, PDZ ~[…] Kd, triplicate experiments
N1P1 (NHERF1 PDZ1) = target: T2, N1P1 (NHERF1 PDZ1) (Homo sapiens, UniProt O14745); assay: FP displacement binding to NHERF1 PDZ1
T2 sequence (O14745 14-94 limits assumed): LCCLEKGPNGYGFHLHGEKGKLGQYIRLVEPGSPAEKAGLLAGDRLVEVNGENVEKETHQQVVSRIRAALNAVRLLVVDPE

N1P2 (NHERF1 PDZ2) = target: T3, N1P2 (NHERF1 PDZ2) (Homo sapiens, UniProt O14745); assay: FP displacement binding to NHERF1 PDZ2
T3 sequence (O14745 154-234 limits assumed): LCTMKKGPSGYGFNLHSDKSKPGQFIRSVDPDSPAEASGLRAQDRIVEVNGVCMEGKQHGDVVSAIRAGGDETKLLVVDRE

N2P1 (NHERF2 PDZ1) = N2P1 (NHERF2 PDZ1) (Homo sapiens, UniProt Q15599); assay: FP displacement binding to NHERF2 PDZ1
N2P2 (NHERF2 PDZ2) = N2P2 (NHERF2 PDZ2) (Homo sapiens, UniProt Q15599); assay: FP displacement binding to NHERF2 PDZ2
iCAL36 = assay: fluorescence polarization competition; conditions: cited from earlier work
CFTR (Homo sapiens) = assay: fluorescence polarization competition; conditions: cited from earlier work
iCAL36L = assay: fluorescence polarization competition; conditions: cited from earlier work
CALP (CAL PDZ domain) [2] = target: T1, CALP (CAL PDZ domain); conditions: K*-designed hexamer; ref Roberts et al., 2012; cited from earlier work
F*-CFTR6 = target: T4, F*-CFTR6 (Homo sapiens); assay: fluorescence polarization
T4 chain: {Fluorescein-Ahx}-VQDTRL

iCAL36TRL = target: T5, iCAL36TRL; assay: fluorescence polarization competition
T5 chain: ANSRWPTTRL

iCAL36Q-4 = target: T6, iCAL36Q-4; assay: fluorescence polarization competition
T6 chain: ANSRWQTSII

iCAL36VQD-3 = target: T7, iCAL36VQD-3; assay: fluorescence polarization competition
T7 chain: ANSRVQDSII

iCAL36QDTRL = target: T8, iCAL36QDTRL; assay: fluorescence polarization competition
T8 chain: ANSRWQDTRL

CC(C)C[C@H](NC(=O)[C@H](CCCNC(=N)N)NC(=O)[C@@H](NC(=O)[C@@H](NC(=O)[C@H](CCC(N)=O)NC(=O)[C@@H](NC(=O)[C@H](CCC(=O)O)NC(=O)[C@H](CCC(=O)O)NC(=O)[C@H](CCC(=O)O)NC(=O)[C@@H](N)[C@@H](C)O)C(C)C)[C@@H](C)O)[C@@H](C)O)C(=O)O [CFTRT^-3]
Ki (CALP (CAL PDZ domain) [1]): 18 ± 5.5 µM | Ki (N1P1 (NHERF1 PDZ1)): 0.76 ± 0.51 µM | Ki (N1P2 (NHERF1 PDZ2)): 4.6 ± 1.6 µM | Ki (N2P1 (NHERF2 PDZ1)): 1.3 ± 0.4 µM | Ki (N2P2 (NHERF2 PDZ2)): 0.45 ± 0.25 µM

CC[C@H](C)[C@H](NC(=O)[C@@H](NC(=O)[C@H](CO)NC(=O)[C@@H](NC(=O)[C@H](CCC(N)=O)NC(=O)[C@H](Cc1c[nH]c2ccccc12)NC(=O)[C@H](CCCNC(=N)N)NC(=O)[C@H](CO)NC(=O)[C@H](CC(N)=O)NC(=O)[C@H](C)N)[C@@H](C)O)[C@@H](C)CC)C(=O)O [iCAL36Q^-4]
Ki (N1P1 (NHERF1 PDZ1)): 280 ± 100 µM | Ki (N1P2 (NHERF1 PDZ2)): > 1000 µM | Ki (N2P1 (NHERF2 PDZ1)): 300 ± 100 µM

ANSRVQDSII [iCAL36VQD^-3]
Ki (CALP (CAL PDZ domain) [1]): > 1000 µM | Ki (N1P1 (NHERF1 PDZ1)): > 1000 µM | Ki (N1P2 (NHERF1 PDZ2)): > 1000 µM | Ki (N2P1 (NHERF2 PDZ1)): > 1000 µM

ANSRVQDTRL [iCAL36VQDTRL]
Ki (N1P1 (NHERF1 PDZ1)): 2.5 ± 0.3 µM | Ki (N1P2 (NHERF1 PDZ2)): 6.5 ± 2.3 µM | Ki (N2P1 (NHERF2 PDZ1)): 3.8 ± 1.4 µM | Ki (N2P2 (NHERF2 PDZ2)): 0.94 ± 0.42 µM

ANSRWPTTRL [iCAL36TRL]
Ki (N1P1 (NHERF1 PDZ1)): 8 ± 1.4 µM | Ki (N2P1 (NHERF2 PDZ1)): 8.7 ± 3.1 µM | Ki (N2P2 (NHERF2 PDZ2)): 16.5 ± 3.9 µM

ANSRWQDTRL [iCAL36QDTRL]
Ki (N1P1 (NHERF1 PDZ1)): 1.5 ± 0.2 µM | Ki (N1P2 (NHERF1 PDZ2)): 6.7 ± 2.4 µM | Ki (N2P1 (NHERF2 PDZ1)): 3.1 ± 1.4 µM | Ki (N2P2 (NHERF2 PDZ2)): 1.1 ± 0.6 µM

N1P1 PDZ1 (from UniProt O14745)
Ki (iCAL36): > 1000 µM

N1P2 PDZ2 (from UniProt O14745)
Ki (CFTR (Homo sapiens)): 1.8 µM | Ki (iCAL36L): > 1000 µM | Ki (iCAL36): > 1000 µM

N2P1 PDZ1 (from UniProt Q15599)
Ki (iCAL36): > 1000 µM

N2P2 PDZ2 (from UniProt Q15599)
Ki (iCAL36): > 1000 µM

WQVTRV [kCAL01]
CALP affinity in words (CALP (CAL PDZ domain) [2]): highest affinity observed to date for a hexameric sequence

B1: N1P1 PDZ1 (protein)
chain: LPRLCCLEKGPNGYGFHLHGEKGKLGQYIRLVEPGSPAEKAGLLAGDRLVEVNGENVEKETHQQVVSRIRAALNAVRLLVVDPETDE
Kd (F*-CFTR6): 0.37 µM | Ki (iCAL36TRL): 8 µM | Ki (iCAL36Q-4): 280 µM | Ki (iCAL36VQD-3): > 1000 µM

B2: N2P2 PDZ2 (protein)
chain: LRPRLCHLRKGPQGYGFNLHSDKSRPGQYIRSVDPGSPAARSGLRAQDRLIEVNGQNVEGLRHAEVVASIKAREDEARLLVVDPETD
Ki (iCAL36QDTRL): 1.1 µM | Ki (iCAL36TRL): 16.5 µM | Ki (iCAL36Q-4): 450 µM

B3: N1P2 PDZ2 (protein)
chain: RPRLCTMKKGPSGYGFNLHSDKSKPGQFIRSVDPDSPAEASGLRAQDRIVEVNGVCMEGKQHGDVVSAIRAGGDETKLLVVDRETDE
Ki (iCAL36TRL): 110 µM | Ki (iCAL36Q-4): > 1000 µM | Ki (iCAL36VQD-3): > 1000 µM

B4: N2P1 PDZ1 (protein)
chain: RPRLCRLVRGEQGYGFHLHGEKGRRGQFIRRVEPGSPAEAAALRAGDRLVEVNGVNVEGETHHQVVQRIKAVEGQTRLLVVDQETD
Ki (iCAL36QDTRL): 3.1 µM | Ki (iCAL36TRL): 8.7 µM | Ki (iCAL36Q-4): 300 µM | Ki (iCAL36VQD-3): > 1000 µM
